Experimental data published in publication PMC6017193, “Structure-Based Discovery of a Series of 5H-Pyrrolo[2,3-b]pyrazine FGFR Kinase Inhibitors” (Molecules : A Journal of Synthetic Chemistry and Natural …, 2018).

Tests used:
[1] = biological target: VEGFR-1 (Homo sapiens, UniProt P17948); assay: Kinase panel profiling; format: biochemical
[2] = biological target: PDGFR-α (Homo sapiens, UniProt P16234); assay: Kinase panel profiling; format: biochemical
[3] = biological target: PDGFR-β (Homo sapiens, UniProt P09619); assay: Kinase panel profiling; format: biochemical
Sequence of PDGFR-β (P09619 33-1106, species assumed): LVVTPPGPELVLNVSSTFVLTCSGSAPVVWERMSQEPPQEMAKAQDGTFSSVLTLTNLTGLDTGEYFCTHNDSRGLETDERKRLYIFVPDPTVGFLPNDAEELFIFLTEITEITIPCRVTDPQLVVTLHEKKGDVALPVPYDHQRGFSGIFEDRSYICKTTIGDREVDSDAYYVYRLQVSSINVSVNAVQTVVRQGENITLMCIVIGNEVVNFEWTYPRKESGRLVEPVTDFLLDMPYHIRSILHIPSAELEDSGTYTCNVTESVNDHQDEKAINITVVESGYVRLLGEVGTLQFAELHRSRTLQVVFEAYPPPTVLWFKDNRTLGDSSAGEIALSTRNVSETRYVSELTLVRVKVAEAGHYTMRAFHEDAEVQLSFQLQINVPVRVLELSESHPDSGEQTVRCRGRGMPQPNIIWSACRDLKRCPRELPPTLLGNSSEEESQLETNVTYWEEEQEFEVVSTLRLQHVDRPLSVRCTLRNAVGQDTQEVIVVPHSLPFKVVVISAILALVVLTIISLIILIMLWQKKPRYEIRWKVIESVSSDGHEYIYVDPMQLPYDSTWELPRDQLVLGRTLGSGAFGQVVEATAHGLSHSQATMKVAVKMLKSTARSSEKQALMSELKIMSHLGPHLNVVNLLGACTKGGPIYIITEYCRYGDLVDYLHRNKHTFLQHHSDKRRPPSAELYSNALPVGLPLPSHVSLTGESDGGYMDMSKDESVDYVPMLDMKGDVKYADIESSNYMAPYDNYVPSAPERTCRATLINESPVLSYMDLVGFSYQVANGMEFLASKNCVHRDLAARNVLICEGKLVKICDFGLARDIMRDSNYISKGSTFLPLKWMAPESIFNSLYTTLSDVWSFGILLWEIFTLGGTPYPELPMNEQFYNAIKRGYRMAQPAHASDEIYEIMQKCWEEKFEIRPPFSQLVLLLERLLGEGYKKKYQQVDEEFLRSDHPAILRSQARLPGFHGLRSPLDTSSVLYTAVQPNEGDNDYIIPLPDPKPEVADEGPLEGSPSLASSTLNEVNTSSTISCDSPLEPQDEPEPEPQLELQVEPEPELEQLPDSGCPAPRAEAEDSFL

[4] = biological target: EGFR (Homo sapiens, UniProt P00533); assay: Kinase panel profiling; format: biochemical
Sequence of EGFR (P00533 25-1210, species assumed): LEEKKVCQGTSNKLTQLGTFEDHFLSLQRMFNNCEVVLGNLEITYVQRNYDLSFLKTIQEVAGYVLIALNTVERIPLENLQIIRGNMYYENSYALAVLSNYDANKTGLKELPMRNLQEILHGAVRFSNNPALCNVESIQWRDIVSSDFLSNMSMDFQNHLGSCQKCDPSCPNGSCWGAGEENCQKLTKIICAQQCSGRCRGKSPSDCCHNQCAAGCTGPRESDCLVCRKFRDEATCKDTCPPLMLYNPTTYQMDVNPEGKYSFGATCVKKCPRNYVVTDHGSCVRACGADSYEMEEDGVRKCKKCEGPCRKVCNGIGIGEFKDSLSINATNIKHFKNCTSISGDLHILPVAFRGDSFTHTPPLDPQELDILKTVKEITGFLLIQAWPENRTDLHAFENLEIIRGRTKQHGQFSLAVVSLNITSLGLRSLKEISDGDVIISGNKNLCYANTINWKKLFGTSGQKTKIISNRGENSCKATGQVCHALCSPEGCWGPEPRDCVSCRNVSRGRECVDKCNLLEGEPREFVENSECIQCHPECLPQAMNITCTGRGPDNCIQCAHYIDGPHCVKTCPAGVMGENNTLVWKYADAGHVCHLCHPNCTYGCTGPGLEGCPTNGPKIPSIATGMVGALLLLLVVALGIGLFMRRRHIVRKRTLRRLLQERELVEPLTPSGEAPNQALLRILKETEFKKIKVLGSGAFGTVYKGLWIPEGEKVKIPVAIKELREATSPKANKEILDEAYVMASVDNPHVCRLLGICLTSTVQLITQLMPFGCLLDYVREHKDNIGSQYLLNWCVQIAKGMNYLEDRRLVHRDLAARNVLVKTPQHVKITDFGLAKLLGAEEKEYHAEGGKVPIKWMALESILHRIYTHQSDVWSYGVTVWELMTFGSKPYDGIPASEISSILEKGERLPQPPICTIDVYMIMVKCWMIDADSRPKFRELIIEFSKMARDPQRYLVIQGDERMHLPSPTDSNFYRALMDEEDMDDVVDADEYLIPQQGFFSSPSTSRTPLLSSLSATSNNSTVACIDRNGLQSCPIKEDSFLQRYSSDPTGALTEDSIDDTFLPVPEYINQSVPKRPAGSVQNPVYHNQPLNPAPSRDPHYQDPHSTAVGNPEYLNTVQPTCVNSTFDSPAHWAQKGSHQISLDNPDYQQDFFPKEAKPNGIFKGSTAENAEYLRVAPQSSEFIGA

[5] = biological target: Src (Homo sapiens, UniProt P12931); assay: Kinase panel profiling; format: biochemical
[6] = biological target: EPH-A2 (Homo sapiens, UniProt P29317); assay: Kinase panel profiling; format: biochemical
[7] = biological target: IGF1R (Homo sapiens, UniProt P08069); assay: Kinase panel profiling; format: biochemical
Sequence of IGF1R (P08069 31-1367, species assumed): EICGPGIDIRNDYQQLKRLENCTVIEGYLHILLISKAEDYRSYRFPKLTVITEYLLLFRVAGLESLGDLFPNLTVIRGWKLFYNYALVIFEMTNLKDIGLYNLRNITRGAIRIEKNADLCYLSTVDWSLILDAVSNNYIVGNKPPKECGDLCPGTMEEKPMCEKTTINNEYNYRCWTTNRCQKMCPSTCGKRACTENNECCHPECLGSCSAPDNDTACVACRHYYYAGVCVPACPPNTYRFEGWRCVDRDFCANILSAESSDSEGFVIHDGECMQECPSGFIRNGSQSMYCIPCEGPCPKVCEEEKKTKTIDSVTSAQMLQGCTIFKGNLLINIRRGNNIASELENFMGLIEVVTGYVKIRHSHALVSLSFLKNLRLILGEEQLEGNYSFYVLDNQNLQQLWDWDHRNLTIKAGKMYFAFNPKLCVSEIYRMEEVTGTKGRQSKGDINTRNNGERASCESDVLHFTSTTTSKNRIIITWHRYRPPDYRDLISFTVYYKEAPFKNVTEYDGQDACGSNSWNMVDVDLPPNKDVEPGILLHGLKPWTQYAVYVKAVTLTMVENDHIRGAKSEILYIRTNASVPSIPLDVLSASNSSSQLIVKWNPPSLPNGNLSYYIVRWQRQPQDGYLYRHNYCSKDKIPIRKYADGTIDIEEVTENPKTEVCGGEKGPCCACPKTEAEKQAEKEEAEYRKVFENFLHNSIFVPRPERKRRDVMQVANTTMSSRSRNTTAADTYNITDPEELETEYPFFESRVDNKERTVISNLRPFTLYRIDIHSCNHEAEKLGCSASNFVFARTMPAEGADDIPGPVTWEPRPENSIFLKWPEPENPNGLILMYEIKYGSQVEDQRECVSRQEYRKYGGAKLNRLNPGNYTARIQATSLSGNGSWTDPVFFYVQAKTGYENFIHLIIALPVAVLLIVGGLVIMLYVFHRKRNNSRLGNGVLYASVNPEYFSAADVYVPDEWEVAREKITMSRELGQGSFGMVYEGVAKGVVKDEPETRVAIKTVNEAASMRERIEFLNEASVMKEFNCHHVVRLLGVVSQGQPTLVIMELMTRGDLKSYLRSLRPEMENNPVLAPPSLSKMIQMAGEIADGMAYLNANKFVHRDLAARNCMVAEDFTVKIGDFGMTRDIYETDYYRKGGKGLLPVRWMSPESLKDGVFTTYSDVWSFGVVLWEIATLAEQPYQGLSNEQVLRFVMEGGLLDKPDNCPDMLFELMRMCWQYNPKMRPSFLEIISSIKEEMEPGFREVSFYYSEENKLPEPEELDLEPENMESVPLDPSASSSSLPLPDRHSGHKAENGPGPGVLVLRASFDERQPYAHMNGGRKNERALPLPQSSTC

[8] = biological target: ROS1 (Homo sapiens, UniProt P08922); assay: Kinase panel profiling; format: biochemical
[9] = biological target: T1, AXL (Homo sapiens, UniProt P30530); assay: Kinase panel profiling; format: biochemical
T1 sequence (P30530 26-894): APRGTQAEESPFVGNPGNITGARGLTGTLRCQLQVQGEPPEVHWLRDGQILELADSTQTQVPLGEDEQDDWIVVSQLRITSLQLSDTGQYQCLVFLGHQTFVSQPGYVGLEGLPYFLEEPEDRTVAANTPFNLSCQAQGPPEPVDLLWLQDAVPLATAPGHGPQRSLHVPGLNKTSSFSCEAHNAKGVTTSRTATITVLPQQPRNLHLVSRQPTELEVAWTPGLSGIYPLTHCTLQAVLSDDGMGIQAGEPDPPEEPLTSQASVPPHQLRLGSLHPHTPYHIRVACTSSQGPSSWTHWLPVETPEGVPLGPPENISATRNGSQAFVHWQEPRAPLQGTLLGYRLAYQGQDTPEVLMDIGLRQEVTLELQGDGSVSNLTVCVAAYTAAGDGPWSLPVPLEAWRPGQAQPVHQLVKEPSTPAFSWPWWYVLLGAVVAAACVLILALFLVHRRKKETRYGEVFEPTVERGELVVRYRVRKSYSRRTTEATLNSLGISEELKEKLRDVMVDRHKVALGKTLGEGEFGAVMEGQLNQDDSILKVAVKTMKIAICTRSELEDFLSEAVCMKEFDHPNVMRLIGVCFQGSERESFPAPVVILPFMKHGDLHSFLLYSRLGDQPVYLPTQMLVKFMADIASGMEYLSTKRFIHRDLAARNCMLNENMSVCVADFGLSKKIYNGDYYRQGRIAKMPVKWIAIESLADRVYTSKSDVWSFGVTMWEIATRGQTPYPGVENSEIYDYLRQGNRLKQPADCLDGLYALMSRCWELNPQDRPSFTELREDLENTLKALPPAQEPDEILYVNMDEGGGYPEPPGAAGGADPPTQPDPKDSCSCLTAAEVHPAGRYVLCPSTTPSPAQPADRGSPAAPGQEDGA

[10] = Human liver microsome stability test; format: in vitro ADME; details: human liver microsomes, pH 7.4, 1 μM test compound, read-out: HLM (human liver microsome stability test, clearance)
Description: Microsomes (Human microsome: Xenotech, Lot No.H0610; Rat microsome: Xenotech, Lot No. R1000) (0.5 mg/mL) were preincubated with 1 μM of test compound for 5 min at 37 °C in 0.1 M phosphate buffer (pH 7.4) with 1 mmol Ethylenediaminetetraacetic acid (EDTA), and 5 mmol MgCl2. The reactions were initiated by adding prewarmed cofactors (1 mmol NADPH). After 0-min, 5-min, 10-min, and 30-min incubations at 37 °C, the reactions were stopped by adding an equal volume of cold acetonitrile. The samples were vortexed for 10 min, and then centrifuged at 10,000× g for 10 min. Supernatants were analyzed by LC/MS/MS for the amount of the parent compound remaining, and the corresponding loss of the parent compound was also determined by LC/MS/MS.

Sequence of PDGFR-α (P16234 24-1089, species assumed): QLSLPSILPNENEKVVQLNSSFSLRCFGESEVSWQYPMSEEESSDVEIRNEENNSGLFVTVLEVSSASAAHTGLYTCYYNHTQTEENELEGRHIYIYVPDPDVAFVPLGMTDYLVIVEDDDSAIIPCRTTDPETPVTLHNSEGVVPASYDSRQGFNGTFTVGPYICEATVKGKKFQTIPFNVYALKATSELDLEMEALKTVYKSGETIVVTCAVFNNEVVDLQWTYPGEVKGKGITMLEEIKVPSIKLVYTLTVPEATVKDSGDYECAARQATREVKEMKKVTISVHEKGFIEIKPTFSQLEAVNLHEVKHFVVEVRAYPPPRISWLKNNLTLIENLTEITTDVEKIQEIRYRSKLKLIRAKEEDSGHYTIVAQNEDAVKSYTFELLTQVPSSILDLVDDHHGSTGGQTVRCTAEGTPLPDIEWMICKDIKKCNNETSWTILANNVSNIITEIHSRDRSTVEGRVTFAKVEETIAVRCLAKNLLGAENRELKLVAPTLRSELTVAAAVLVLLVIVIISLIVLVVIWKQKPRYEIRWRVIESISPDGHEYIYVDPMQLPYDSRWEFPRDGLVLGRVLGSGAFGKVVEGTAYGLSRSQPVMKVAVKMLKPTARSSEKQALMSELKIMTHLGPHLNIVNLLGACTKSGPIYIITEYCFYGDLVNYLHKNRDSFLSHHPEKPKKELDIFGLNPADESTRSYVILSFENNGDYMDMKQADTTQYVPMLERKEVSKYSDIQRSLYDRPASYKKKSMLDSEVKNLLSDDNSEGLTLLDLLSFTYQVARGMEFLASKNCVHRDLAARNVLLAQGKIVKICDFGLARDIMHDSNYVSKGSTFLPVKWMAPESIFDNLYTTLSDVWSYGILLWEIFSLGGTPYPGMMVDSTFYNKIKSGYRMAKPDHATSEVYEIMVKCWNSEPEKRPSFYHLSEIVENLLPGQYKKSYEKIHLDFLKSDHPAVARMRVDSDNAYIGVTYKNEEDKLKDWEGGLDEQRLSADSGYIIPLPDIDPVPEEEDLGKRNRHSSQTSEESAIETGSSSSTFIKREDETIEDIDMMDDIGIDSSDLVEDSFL

O=S(=O)(c1cn(CCF)cn1)n1ccc2ncc(-c3cn[nH]c3)nc21 [Compound 13, 5-((1-(2-fluoroethyl)-1H-imidazol-4-yl)sulfonyl)-3-(1H-pyrazol-4-yl)-5H-pyrrolo[2,3-b]pyrazine]
inhibition at 0.01 µM ([1]; 10 nM): 0%
inhibition at 0.1 µM ([1]; 100 nM): 4.9%
inhibition at 1 µM ([1]; 1000 nM): 0%
inhibition at 0.01 µM ([2]; 10 nM): 21.9%
inhibition at 0.1 µM ([2]; 100 nM): 20.9%
inhibition at 1 µM ([2]; 1000 nM): 23.2%
inhibition at 0.01 µM ([3]; 10 nM): 12.8%
inhibition at 0.1 µM ([3]; 100 nM): 30.1%
inhibition at 1 µM ([3]; 1000 nM): 58.6%
inhibition at 0.01 µM ([4]; 10 nM): 0%
inhibition at 0.1 µM ([4]; 100 nM): 0%
inhibition at 1 µM ([4]; 1000 nM): 0%
inhibition at 0.01 µM ([5]; 10 nM): 0%
inhibition at 0.1 µM ([5]; 100 nM): 0%
inhibition at 1 µM ([5]; 1000 nM): 0%
inhibition at 0.01 µM ([6]; 10 nM): 0%
inhibition at 0.1 µM ([6]; 100 nM): 0%
inhibition at 1 µM ([6]; 1000 nM): 0%
inhibition at 0.01 µM ([7]; 10 nM): -3.8%
inhibition at 0.1 µM ([7]; 100 nM): 3%
inhibition at 1 µM ([7]; 1000 nM): 11.8%
inhibition at 0.01 µM ([8]; 10 nM): -3.8%
inhibition at 0.1 µM ([8]; 100 nM): 3%
inhibition at 1 µM ([8]; 1000 nM): 11.8%
inhibition at 0.01 µM ([9]; 10 nM): 1.1%
inhibition at 0.1 µM ([9]; 100 nM): 2.9%
inhibition at 1 µM ([9]; 1000 nM): -5.5%
microsomal CLint at 1 μM [10]: 1 µL/min/mg
